# Measured values as given in patent US5444077A, “Ameliorant of cerebral circulation and optical isomer of NB-818, processes for its use” (Banyu Pharmaceutical Co., Ltd., priority 1987, dated 1995).
# Experiments:
# [1] = system: vertebral artery; assay: Effect to increase the blood flow of the vertebral artery in anesthetized beagle dogs (Pharmacological Test Example 1); assay type: in vivo, beagle dog
# Procedure: (§1) Effect to increase the blood flow of the vertebral artery
# (§2) A male or female beagle dog having a body weight of about 10 kg was anesthetized by subcutaneous administration of 35 mg/kg of sodium pentobarbital, and the level of anesthesia was maintained by continuous injection of from 4 to 6 mg/kg/hr of sodium pentobarbital.
# (§3) The test was conducted by maintaining the blood gases under optimum conditions under artificial respiration. A drug was dissolved in a 0.9 wt % saline containing 10% by weight of polyethylene glycol and 10% by weight of ethanol, and a predetermined amount of the solution was intravenously or intraduodenally injected to the beagle dog. Then, the blood flow, the blood pressure and the heart rate were measured.
# The blood flow was measured by an electromagnetic flow meter by means of blood flow probes attached to the vertebral artery and the femoral artery of the beagle dog. The blood pressure was measured by a pressure transducer connected to a canule inserted to the left femoral artery of the beagle dog.
# [2] = system: vertebral artery; assay: Effect of optical isomers to increase the blood flow of the vertebral artery in anesthetized beagle dogs (Pharmacological Test Example 6); assay type: in vivo, beagle dog; conditions: intravenous
# Procedure: as §1, §2
# as §3, with “intravenously” for “intravenously or intraduodenally”
# The blood flow was measured by an electromagnetic flow meter by means of blood flow probes attached to the vertebral artery and the femoral artery of the beagle dog. The blood pressure was measured by a pressure transducer connected to a canule inserted to the left femoral artery of the beagle dog. Further, the heart rate was measured by a heart rate counter based on the pulse wave of blood pressure.
# The levo-rotatory optical isomer of 2-carbamoyloxymethyl-4-(2,3-dichlorophenyl)-6-methyl-1,4-dihydropyridine-3,5-dicarboxylic acid 3-isopropyl ester 5-methyl ester will be hereinafter referred to simply as (-)-NB-818, and the dextro-rotatory optical isomer thereof will be referred to simply as (+)-NB-818.
# [3] = system: vertebral artery; assay: as above; assay type: in vivo, beagle dog
# [4] = Acute toxicity (LD50) upon oral administration to rats; conditions: rat, in vivo
# Excerpt: Thus, it is particularly advantageous for the treatment and prevention of the above diseases, for which continuous administration for a long period of time is obliged. Thus, its value as a pharmaceutical is very high.
# [5] = system: cerebral regional blood flow; assay: Effect to increase the cerebral regional blood flow in rabbits (Pharmacological Test Example 2); assay type: in vivo, rabbit; conditions: 0.01 mg/kg, intravenous
# Procedure: A male rabbit having a body weight of about 3 kg was immobilized by intravenous injection of gallamine (2-3 mg/kg) and secured to an apparatus for fixing the brain position. Then, platinum electrodes for measuring hydrogen gas clearance were inserted to the top of cerebral cortex, to the center of the cerebellum and to the femoral muscle, and the blood flows were measured. The drug was dissolved in a 0.9 wt % saline containing 10% by weight of polyethylene glycol and 10% by weight of ethanol, and the solution was intravenously injected.
# [6] = system: cerebral regional blood flow; assay: Effect to increase the cerebral regional blood flow in monkeys (Pharmacological Test Example 3); assay type: in vivo, Rhesus monkey; conditions: 0.01 mg/kg, intravenous
# Procedure: Effect to increase the cerebral regional blood flow in monkeys
# A male Rhesus monkey having a body weight of from 5.0 to 11.0 kg was anesthetized with ketamine hydrochloride (1 mg/kg by intravenous injection) and sodium pentobarbital (30 mg/kg by intraperitoneal injection), and an endotracheal tube was inserted for artificial respiration. Then, the animal's head was fixed to a stereotaxic apparatus. The cerebral blood flow was calculated from the hydrogen gas clearance curve measured by means of needle type electrodes for hydrogen gas clearance inserted to the cerebral cortex after incising the head and boring a hole in the occipital lobe.
# The drug was dissolved in a 0.9 wt % saline containing 10% by weight of polyethylene glycol 300 and 10% by weight of ethanol, and the solution was intravenously administered.
# [7] = system: cerebral isochemia models of Mongolian gerbils; assay: Effect to prolong the life in the cerebral ischemia models of Mongolian gerbils (Pharmacological Test Example 4); assay type: in vivo, Mongolian gerbil; conditions: 0.01 mg/kg, intraperitoneal; control 100
# Procedure: Effect to prolong the life in the cerebral isochemia models of Mongolian gerbils
# A male Mongolian gerbil having a body weight of about 70 g was anesthetized by intraperitoneal administration of 70 mg/kg of ketamine hydrochloride. Then, left and right common carotid arteries were exposed and closed by scorbil clips for 20 minutes. Then, the clips were removed to regain the blood flow. Thirty minutes later, a drug dissolved in a 0.9 wt % saline containing 10% by weight of polyethylene glycol 300 and 10% by weight of ethanol, was intraperitoneally administered. The effect to prolong the life was determined by observing mortality and the neurotic symptom during 8 hours or 24 hours from the administration of the drug.
# [8] = system: amnesia induced by ECS; assay: Effect against amnesia induced by ECS, passive avoidance, pretreatment with drug administration (Pharmacological Test Example 5); assay type: in vivo, rat; conditions: 3 mg/kg p.o.; for Latent reaction time, acquisition test: control 8.6 ± 1.3; for Latent reaction time, 2 hours later: control 49.2 ± 8.1; for Latent reaction time, 2 hours later / Latent reaction time, 24 hours later: * P < 0.05 vs control; for Latent reaction time, 24 hours later: control 85.6 ± 22.0
# Excerpt: (§4) By using male rats having a body weight of about 200 g, the antiamnesic effect was examined on the basis of one trial passive avoidance reaction as an index. Namely, a rat is put in a light chamber of an operant box comprising the light chamber and a dark chamber, and when the rat entered into the dark chamber, an electric stimulation (5 mA for 10 seconds) was applied from the floor and immediately an electric shock (30 mA, 0.75 second) (hereinafter referred to simply as ECS) was applied to the head of the rat. Two hours or 24 hours after the ECS, the rat was put in the light chamber, and the time until the rat entered from the light chamber to the dark chamber (the latent reaction time) was measured,
# The drug was suspended in a 0.5 wt % methyl cellulose and orally administered three times at intervals of 24 hours so that the final administration was conducted one hour prior to ECS.
# [9] = system: amnesia induced by ECS; assay: Effect against amnesia induced by ECS, passive avoidance, post-treatment with drug administration (Pharmacological Test Example 5); assay type: in vivo, rat; conditions: 1 mg/kg p.o.
# Excerpt: as §4
# In a separate test, the drug was orally administered at the same time as ECS, and the latent reaction time was measured two hours later, or NB-818 was again administered 22 hours later and then the latent reaction time was measured two hours later.
smiles,measurement,setting,value
"CCCOC(=O)C1=C(COC(N)=O)NC(C)=C(C(=O)OC)C1c1cccc(Cl)c1Cl (stereo not shown) [Compound C, 2-Carbamoyloxymethyl-4-(2,3-dichlorophenyl)-6-methyl-1,4-dihydropyridine-3,5-dicarboxylic acid 3-propyl ester 5-methyl ester]",Change in blood pressure,[1]; 0.01 mg/kg iv,-15%
same,Change in femoral artery blood flow,[1]; 0.01 mg/kg iv,+20%
same,Change in vertebral artery blood flow,[1]; 0.01 mg/kg iv,+95%
same,Effective period (Half-life period),[1]; 0.01 mg/kg iv,42 min
"COC(=O)C1=C(C)NC(COC(N)=O)=C(C(=O)OC(C)C)C1c1cccc(Cl)c1Cl (single isomer, unassigned; (-)) [(-)-NB-818, levo-rotatory optical isomer of 2-carbamoyloxymethyl-4-(2,3-dichlorophenyl)-6-methyl-1,4-dihydropyridine-3,5-dicarboxylic acid 3-isopropyl ester 5-methyl ester]",Change in femoral artery blood flow,[2]; 0.01 mg/kg,+3.3%
same,Change in heart rate,[2]; 0.01 mg/kg,+3.4%
same,Change in vertebral artery blood flow,[2]; 0.01 mg/kg,+123.2%
same,Effective period (Half-life period),[2]; 0.01 mg/kg,44 min
same,Change in blood pressure,"[3]; 0.01 mg/kg, intravenous",-26.6%
"COC(=O)C1=C(C)NC(COC(N)=O)=C(C(=O)OC)C1c1cccc(Cl)c1Cl (stereo not shown) [Compound A, 2-Carbamoyloxymethyl-4-(2,3-dichlorophenyl)-6-methyl-1,4-dihydropyridine-3,5-dicarboxylic acid 3,5-dimethyl ester]",Change in blood pressure,[1]; 0.01 mg/kg iv,-13%
same,Change in femoral artery blood flow,[1]; 0.01 mg/kg iv,+14%
same,Change in vertebral artery blood flow,[1]; 0.01 mg/kg iv,+76%
same,Effective period (Half-life period),[1]; 0.01 mg/kg iv,9 min
"CCCCOC(=O)C1=C(COC(N)=O)NC(C)=C(C(=O)OC)C1c1cccc(Cl)c1Cl (stereo not shown) [Compound D, 2-Carbamoyloxymethyl-4-(2,3-dichlorophenyl)-6-methyl-1,4-dihydropyridine-3,5-dicarboxylic acid 3-butyl ester 5-methyl ester]",Change in blood pressure,[1]; 0.01 mg/kg iv,-14%
same,Change in femoral artery blood flow,[1]; 0.01 mg/kg iv,+13%
same,Change in vertebral artery blood flow,[1]; 0.01 mg/kg iv,+80%
same,Effective period (Half-life period),[1]; 0.01 mg/kg iv,44 min
"COC(=O)C1=C(C)NC(COC(N)=O)=C(C(=O)OC(C)C)C1c1cccc(Cl)c1Cl (stereo not shown) [NB-818, 2-Carbamoyloxymethyl-4-(2,3-dichlorophenyl)-6-methyl-1,4-dihydropyridine-3,5-dicarboxylic acid 3-isopropyl ester 5-methyl ester]",LD50,[4],≥ 3000 mg/kg
same,Change in blood pressure,[1]; 0.01 mg/kg iv,-14%
same,Change in femoral artery blood flow,[1]; 0.01 mg/kg iv,+12%
same,Change in vertebral artery blood flow,[1]; 0.01 mg/kg iv,+109%
same,Effective period (Half-life period),[1]; 0.01 mg/kg iv,57 min
same,Change in blood pressure,[1]; 0.1 mg/kg id (intraduodenal),-18%
same,Change in femoral artery blood flow,[1]; 0.1 mg/kg id (intraduodenal),+36%
same,Change in vertebral artery blood flow,[1]; 0.1 mg/kg id (intraduodenal),+135%
same,Effective period (Half-life period),[1]; 0.1 mg/kg id (intraduodenal),> 300 min
same,influence over the blood pressure and the heart rate,[1]; at dose level selectively increasing vertebral artery blood flow,minimum
same,"Blood flow change, cerebellum blood flow",[5],+85%
same,"Blood flow change, cerebral blood flow",[5],+82%
same,"Blood flow change, femoral muscle blood flow",[5],+3%
same,Effective period (Half-life period),[5],44.6 min
same,Change in blood pressure,[6],-20%
same,Change in cerebral cortex blood flow,[6],+28%
same,Change in heart rate,[6],+16%
same,Effective period (Half-life period),[6],> 60 min
same,"Mortality, 0-8 hours",[7],38.5%
same,"Mortality, 0-24 hours",[7],76.9%
same,"Latent reaction time, acquisition test",[8],11.4 ± 1.3 s
same,"Latent reaction time, 2 hours later",[8],128.8 ± 21.8 s
same,"Latent reaction time, 24 hours later",[8],189.6 ± 24.6 s
same,"Latent reaction time, acquisition test",[9]; control 9.0 ± 1.5,8.3 ± 1.2 s
same,"Latent reaction time, 2 hours later","[9]; control 30.6 ± 3.0, * P < 0.05 vs control",88.5 ± 17.9 s
same,"Latent reaction time, 24 hours later","[9]; control 42.5 ± 9.0, * P < 0.05 vs control",111.8 ± 21.5 s
"COC(=O)C1=C(C)NC(COC(N)=O)=C(C(=O)OC(C)C)C1c1cccc(Cl)c1Cl (single isomer, unassigned; (+)) [(+)-NB-818]",Change in femoral artery blood flow,[2]; 0.1 mg/kg,+18.8%
same,Change in heart rate,[2]; 0.1 mg/kg,+3.8%
same,Change in blood pressure,"[3]; 0.1 mg/kg, intravenous",-8.1%
same,Change in vertebral artery blood flow,"[3]; 0.1 mg/kg, intravenous",+56.8%
same,Effective period (Half-life period),"[3]; 0.1 mg/kg, intravenous",15.5 min
"CCOC(=O)C1=C(COC(N)=O)NC(C)=C(C(=O)OC)C1c1cccc(Cl)c1Cl (stereo not shown) [Compound B, 2-Carbamoyloxymethyl-4-(2,3-dichlorophenyl)-6-methyl-1,4-dihydropyridine-3,5-dicarboxylic acid 3-ethyl ester 5-methyl ester]",Change in blood pressure,[1]; 0.01 mg/kg iv,-14%
same,Change in femoral artery blood flow,[1]; 0.01 mg/kg iv,+16%
same,Change in vertebral artery blood flow,[1]; 0.01 mg/kg iv,+50%
same,Effective period (Half-life period),[1]; 0.01 mg/kg iv,36 min
"COC(=O)C1=C(C)NC(C)=C(C(=O)OCCN(C)Cc2ccccc2)C1c1cccc([N+](=O)[O-])c1 (stereo not shown) [Nicardipine, nicardipine]",Change in blood pressure,[6],-24%
same,Change in cerebral cortex blood flow,[6],+16%
same,Change in heart rate,[6],+18%
same,Effective period (Half-life period),[6],< 30 min
same,"Mortality, 0-8 hours",[7],83.3%
same,"Mortality, 0-24 hours",[7],91.7%
"COCCOC(=O)C1=C(C)NC(C)=C(C(=O)OC(C)C)C1c1cccc([N+](=O)[O-])c1 (stereo not shown) [Nimodipine, nimodipine]",Change in blood pressure,[1]; 0.3 mg/kg id (intraduodenal),-29%
same,Change in femoral artery blood flow,[1]; 0.3 mg/kg id (intraduodenal),+75%
same,Change in vertebral artery blood flow,[1]; 0.3 mg/kg id (intraduodenal),+102%
same,Effective period (Half-life period),[1]; 0.3 mg/kg id (intraduodenal),150 min
same,"Blood flow change, cerebellum blood flow",[5],+55%
same,"Blood flow change, cerebral blood flow",[5],+68%
same,"Blood flow change, femoral muscle blood flow",[5],-5%
same,Effective period (Half-life period),[5],20.6 min
same,"Mortality, 0-8 hours",[7],83.3%
same,"Mortality, 0-24 hours",[7],91.7%
same,"Latent reaction time, acquisition test",[8],9.6 ± 1.3 s
same,"Latent reaction time, 2 hours later",[8],103.9 ± 22.2 s
same,"Latent reaction time, 24 hours later",[8],132.1 ± 25.5 s
same,Change in blood pressure,"[3]; 0.3 mg/kg, intraduodenal",-29%
same,Change in femoral artery blood flow,"[3]; 0.3 mg/kg, intraduodenal",+75%
same,Change in heart rate,"[3]; 0.3 mg/kg, intraduodenal",-23%
same,Change in vertebral artery blood flow,"[3]; 0.3 mg/kg, intraduodenal",+102%
same,Effective period (Half-life period),"[3]; 0.3 mg/kg, intraduodenal",150 min
